Key:
[1] = MTX-captisol solubility: rate of precipitation of MTX at pH 5.0 in presence and absence of captisol; format: physicochemical; conditions: for Amount of MTX in solution 1:25 dilution: diluted sample, pH 5.0, MTX added 0.91 mg/ml; for conc. of MTX (molarity of mtx): pH 5.0, Concentration of MTX added 0.002M
Experimental: Solubility studies were performed to determine whether Captisol could prevent the precipitation of MTX over a time period greater than transit time of MTX through the kidney (i.e., less than 2 minutes). Each solution was acidified with HCl, centrifuged and aliquots of the supernatant removed as a function of time, and the concentration of MTX in solution was measured spectrophometrically.

kidney [2] = assay: Histopathological changes in the kidney after single bolus intravenous MTX with or without captisol at different molar ratios; format: in vivo; conditions: normal mice, 48 hours
Experimental: A study of histopathological changes in the kidney after single bolus intravenous MTX with or without concurrent captisol at different molar ratios was performed.
MTX solutions were prepared as follows. Solution A (24 mg/ml (53 mM)) was prepared from stock solution of 25 mg/ml (Methotrexate from Bedford laboratories) in sterile PBS (total volume 6 mL). Solution B was prepared by diluting 3 ml of Solution A to 1:1.33 in PBS to obtain a working dilution of 18 mg/mL (39.6 mM), pH 7.4. Solution C was prepared by diluting 2 mL of solution A 1:2 to obtain a working dilution of 12 mg/mL (26.4 mM), pH 7.2.
MTX+Captisol solutions were prepared as follows. Solution D was made by adding 57.32 mg Captisol to an aliquot of 500 micro liter of solution A (molar ratio 1:1, neutral pH). […]
MTX and Captisol were administered to 8 groups of mice (Groups I-VIII; see Table 3) via tail vein by a single injection in a volume of 100-120 μL. […] Clinical symptoms, body weights were recorded. […]
Semi quantitative estimates of total kidney damage in mice treated with MTX 80 mg/kg, 120 mg/kg, and a combination of MTX+Captisol at MTX to Captisol molar ratio of 1:1 and 1:0.5, are shown in FIG. 4. […] Hematoxylin and eosin sections of paraffin embedded kidney were analyzed microscopically for extent of renal damage. Data is expressed as mean±SEM. […]

kidney [3] = assay: Renal pathology in EAE mice after MTX or MTX+Captisol; format: in vivo, C57BL6 mice; conditions: MTX 40 mg/kg single intravenous bolus, no Captisol
Experimental: Injection volume were between 100-120 μl. […] Leukovorin, the active metabolite of folic acid, is typically given with methotrexate in anti-cancer chemotherapy to help protect normal cells. Mice were scored daily for disease severity and then sacrificed on day 10 of disease. Brain, kidney and spleen were formalin fixed. […] For light microscopic investigation, kidneys were fixed in 10% buffered formalin and processed routinely for paraffin embedding. Tissue sections of 5 micron meter were stained with hematoxylin and eosine and examined under Nikon coolpix light microscope. The severity of total kidney damage was evaluated by a semiquantitative measurement of damage as described. Each tissue section of the kidney was assessed for degeneration of glomerular structure, glomerular crowding and congestion, dilation of bowman space, degeneration of proximal and distal tubules, and dilation of renal tubules, vascular congestion, and inflammatory cell infiltration. For glomerular atrophy, glomeruli that contained more than 20 nuclei were scored “0”, and those containing less than 10 nuclei were scored “4.” Intermediate stages were 1, 2 and 3. Other criterion was scored on a 0-3 scale: 0=none; 1=mild; 2=moderate; 3=severe. […]

kidney [4] = assay: Captisol-MTX time studies, kidney histopathology at 24 hrs, 48 hrs, 1 week; format: in vivo, mice
Experimental: For light microscopic investigation, kidneys were fixed in 10% buffered formalin and processed routinely for paraffin embedding. Tissue sections of 5 micron meter were stained with hematoxylin and eosine and examined under a Nikon coolpix light microscope, photography was done with a Nikon Coolpix camera. The severity of total kidney damage was evaluated by a semiquantitative measurement of damage as described below. Each tissue section of the kidney was assessed for degeneration of glomerular structure, glomerular crowding and congestion, dilation of bowman space, degeneration of proximal and distal tubules, and dilation of renal tubules, vascular congestion, and inflammatory cell infiltration. For glomerular atrophy, glomeruli that contained more than 20 nuclei were scored “0”, and those containing less than 10 nuclei were scored “4.” Intermediate stages were 1, 2 and 3. Other criterion was scored on a 0-3 scale: 0=none; 1=mild; 2=moderate; and 3=severe. The microscopic score of each tissue was calculated as the sum of the scores given to each criterion and at least 100 nephrons (glomeruli plus surrounding tubules) were analyzed per section. See, e.g., Bhat et al., PNAS (2003) 100(7); Sener et al., Cell Biol Toxicol (2006) 22:[…].

kidney [5] = assay: Methotrexate induced nephrotoxicity model in mice, HPβCD; format: in vivo, C57BL/6 mice; conditions: normal mice; MTX 80 mg/kg single IV injection alone; 24 hrs
Experimental: To determine the protective effect of other cyclodextrin molecules, 2-hydroxypropyl β-cyclodextrin (HPβCD) was evaluated. Female C57BL/6 mice were injected intravenously with a single dose of methotrexate 80 mg/kg, IV, or methotrexate+HPβCD, IV, at methotrexate to HPβCD molar ratios of 1:1 and 1:0.5. The animals were sacrificed after 24 hrs. The development of glomerular and tubulointerstitial injury after methotrexate and protection by methotrexate+HPβCD was evaluated by means of assessment of renal histology by light microscopy. Leukovorin was given 4 hrs and after 18 hrs. Urine was not alkalinized.
Paraffin sections of […] were cut and stained with H&E and periodic acid Schiff (PAS). They were examined by light microscopy and scored in a blinded fashion. Five arbitratary fields at 40× magnification in each sections was assessed for the parameters, and scored according to the criteria, set forth in Example 7.

Amount of MTX in solution 1:25 dilution ([1]; 5 min after adding acid): 3.449 µg/mL | Amount of MTX in solution 1:25 dilution ([1]; 10 min after adding acid): 2.509 µg/mL | Amount of MTX in solution 1:25 dilution ([1]; 15 min after adding acid): 3.177 µg/mL | Amount of MTX in solution 1:25 dilution ([1]; 20 min after adding acid): 3.844 µg/mL | Amount of MTX in solution 1:25 dilution ([1]; 30 min after adding acid): 3.807 µg/mL | Amount of MTX in solution 1:25 dilution ([1]; 40 min after adding acid): 3.3 µg/mL | Amount of MTX in solution 1:25 dilution ([1]; 50 min after adding acid): 3.412 µg/mL | Amount of MTX in solution 1:25 dilution ([1]; 60 min after adding acid): 3.906 µg/mL | conc. of MTX (molarity of mtx) ([1]; 5 min after adding acid): 189.7 µM | conc. of MTX (molarity of mtx) ([1]; 10 min after adding acid): 138 µM | conc. of MTX (molarity of mtx) ([1]; 15 min after adding acid): 174.7 µM | conc. of MTX (molarity of mtx) ([1]; 20 min after adding acid): 211.4 µM | conc. of MTX (molarity of mtx) ([1]; 30 min after adding acid): 209.4 µM | conc. of MTX (molarity of mtx) ([1]; 40 min after adding acid): 181.5 µM | conc. of MTX (molarity of mtx) ([1]; 50 min after adding acid): 187.6 µM | conc. of MTX (molarity of mtx) ([1]; 60 min after adding acid): 214.8 µM | kidney tissue histopathological changes (FIG. 5) (kidney [4]; normal mice, MTX 160 mg/kg single iv bolus, 24 and 48 hours): extensive histopathological changes
Compound: CN(Cc1cnc2nc(N)nc(N)c2n1)c1ccc(C(=O)N[C@@H](CCC(=O)O)C(=O)O)cc1 [MTX, N-[4-[[(2,4-diamino-6pteridinyl)methyl]methylamino]benzoyl]-L-glutamicacid]
kidney histopathology (H&E) (kidney [2]; MTX 80 mg/kg iv bolus alone): dilation of tubules, degenerative changes in the tubules, hypercellularity in the glomerulus and atypical collection of interstitial cells and convulated tubules | kidney histopathology (H&E) (kidney [2]; MTX 120 mg/kg IV alone): glomerular atrophy, degeneration of basement membrane on bowman capsule, degenerative changes in the tubules, hypercellularity in the glomerulus and infiltration of mononuclear cells | kidney sections, morphological changes (kidney [3]): dilation of renal tubules and degeneration of proximal tubules | kidney histopathology (H&E) (kidney [4]; MTX 160 mg/kg alone, 24 hours post injection): degeneration of glomerular structure and dilation of Bowman's space, degeneration of proximal and distal tubules and inflammatory cell infiltration | kidney histopathology (H&E) (kidney [4]; MTX 160 mg/kg i.v. alone, 48 hours post injection): degeneration of glomerular structure, dilation of Bowman's space, dilation of proximal and distal tubules, degeneration of proximal and distal tubules and inflammatory cell infiltration | kidney histopathology (H&E) (kidney [4]; MTX 160 mg/kg single i.v. bolus alone, 1 week): degeneration of proximal and distal tubules with occasional glomerular atrophy or crowding | renal histology (kidney [5]): significant histopathological changes in the kidney

Reference: patent US8574551B2, “Compositions useful for reducing nephrotoxicity and methods of use thereof” (Verrow Pharmaceuticals, Inc., priority 2005, dated 2013)
